Results taken from patent US11517591B2, “Immunogenic peptides specific to BCMA and TACI antigens” (Dana-Farber Cancer Institute, Inc., priority 2017, dated 2022).

Tested on: CD3+ T cells obtained from HLA-A2+ donors
Experiment: Induction and phenotypic analysis of peptide-specific CTL by repeated peptide stimulation
Format: cell-based, human
Procedure: The peptide-specific CTL were generated from different HLA-A2^+ normal donors for the evaluation of the functional activities targeting MM cell lines. To generate the peptide-specific CTL, mature dendritic cells (mDC) generated from the same donor were resuspended in serum-free AIM-V media and pulsed with 50 μg/ml of the Heteroclitic #4 BCMA72-80 (YLMFLLRKI (SEQ ID NO: 13)) peptide or “Heteroclitic #3 TACI154-162 (YLSADQVAL (SEQ ID NO: 16))” peptide, overnight at 37° C., 5% CO2 in humidified air. The peptide-pulsed mDC were washed, counted, irradiated at 10 Gy and used to prime CD3^+ T cells at a 1:20 antigen-presenting cells/peptide-to-CD3^+ T cell ratio in AIM-V media supplemented with 10% human AB serum. […] To maintain the T cells ex vivo, IL-2 (50 U/ml) was added to the cultures two days after the second stimulation. Control T cell cultures were maintained under the same culture conditions in the presence of IL-2 (50 U/ml), but without peptide stimulation. Phenotype of the resulting CTL was evaluated one week after each cycle of peptide stimulation. […] The BCMA peptide-specific CTL cultures contained a higher percentage of CD8^+ T cells (˜80%) upon 4 cycle of peptide stimulation compared to non-peptide stimulated control T cells (˜20%) (FIGS. 8A-8C).
Antigen-specific CTL can be phenotypically identified as activated/memory T cells from naïve T cells by their expression of distinct cell surface antigens. The phenotype of the BCMA-CTL were examined as potential effector cells by analyzing the phenotype of naïve and memory cells. BCMA peptide-specific CTL were generated by repeated stimulation of HLA-A2^+ normal donor's CD3^+ T cells weekly with antigen-presenting cells pulsed with 50 μg/ml heteroclitic BCMA72-80 (YLMFLLRKI (SEQ ID NO: 13)). One week after each peptide stimulation, the resulting CTL were evaluated for their phenotypic profile by flow cytometry.
BCMA peptide-specific CTL (BCMA-CTL) were generated ex vivo by repeated stimulation of CD3^+ T cells obtained from HLA-A2^+ donors with peptide-pulsed antigen-presenting cells (APC). In brief, peptide (50 μg/ml)-pulsed APC were irradiated (10 Gy) and used to stimulate T cells at a 1 APC/peptide: 20 T cell ratio. The T cell cultures were restimulated every 7 days and maintained in AIM-V medium supplemented with 10% human AB serum (BioWhittaker) in the presence of IL-2 (50 units/ml).
Phenotypic characterization was performed on BCMA-CTL after staining with Live/Dead Aqua stain kit and fluorochrome conjugated anti-human mAbs and Tetramer-PE. Alternatively, the MM and breast cancer cell lines were stained with fluorochrome-conjugated BCMA or HLA-A2 mAb. After staining, the cells were washed, fixed in 2% paraformaldehyde, and analyzed by flow cytometry.
TACI peptide-specific CTL (TACI-CTL) were generated ex vivo by repeated stimulation of enriched CD3^+ T cells obtained from HLA-A2^+ donors with peptide-pulsed antigen-presenting cells (APC). In brief, peptide (50 μg/ml)-pulsed APC were irradiated (10 Gy) and used to stimulate T cells at a 1:20 APC/peptide-to-T cell ratio. The T cell cultures were restimulated every 7 days and maintained in AIM-V medium supplemented with 10% human AB serum (BioWhittaker) in the presence of IL-2 (50 units/ml).
Phenotypic characterization was performed on the MM target cells to conform TACI expression. Phenotypic characterization was performed on the TACI-CTL after staining with Live/Dead Aqua stain kit and fluorochrome conjugated anti-human mAbs. After staining, the cells were washed, fixed in 2% paraformaldehyde, and analyzed by flow cytometry.

[1] = Donor 1, after 2 cycles of peptide stimulation
[2] = Donor 1, after 4 cycles of stimulation
[3] = Donor 1, upon 4 cycles of stimulation
[4] = Donor 2, after 2 cycles of peptide stimulation
[5] = Donor 2, after 4 cycles of stimulation
[6] = Donor 2, upon 4 cycles of stimulation

Sequence: YLMFLLRKI [heteroclitic BCMA72-80, heteroclitic BCMA peptide]
- Naïve (CD45RO-CCR7+) within CD8+ T cells [1]: 37.4%
- central memory (CM; CD45RO+CCR7+) within CD8+ T cells [1]: 32.1%
- central memory (CM) within CD8+ T cells [2]: 44.2%
- effector memory (EM; CD45RO+CCR7-) within CD8+ T cells [2]: 54.6%
- frequency of memory CD3+CD8+ T cells [3]: 86%
- frequency of naive CD3+CD8+ T cells [3]: 2%
- Naïve (CD45RO-CCR7+) within CD8+ T cells [4]: 19.0%
- central memory (CM) within CD8+ T cells [4]: 49.6%
- central memory (CM) within CD8+ T cells [5]: 18.3%
- effector memory (EM) within CD8+ T cells [5]: 77.6%
- frequency of memory CD3+CD8+ T cells [6]: 92%
- frequency of naive CD3+CD8+ T cells [6]: 2%
- frequency of effector memory (CD45RO+/CCR7-) CD3+CD8+ T cells (after 4 cycles of peptide stimulation): increased
- percentage of CD8+ T cells in peptide-specific CTL cultures (upon 4 cycle of peptide stimulation, 50 μg/ml): ~80%
